Values after ≈ are worked out from the molar mass of the structure shown. Read-outs that look alike come from different tables or passages of the source.
Experiments:
[1] = target: T1, PqsR (Pseudomonas aeruginosa, UniProt Q9I4X0); details: read-out: IC50 (PqsR); Figure 1B, earlier hits; cited from earlier work
T1 construct: which expresses PqsR and the β-galactosidase LacZ under the control of the pqsA promoter; expressed in transfected cells; host or cells: E. coli DH5α carrying plasmid pEAL08-2

[2] = target: T1, PqsR; assay: PqsR β-galactosidase reporter-gene assay in E. coli DH5α; type: cell-based; details: for IC50 PqsR: E. coli reporter-gene assay, result in words
Description: 3. Primary Activity Assays
The inverse agonistic/antagonistic activity of potential PqsR ligands was evaluated in a β-galactosidase reporter gene assay in E. coli as previously described.[3] In short, test compounds were co-incubated with E. coli DH5α cells containing the plasmid pEAL08-2,[4] which expresses PqsR and the β-galactosidase LacZ under the control of the pqsA promoter.
The inverse agonistic/antagonistic activity of compounds was measured in the presence of 50 nM PQS. After incubation, galactosidase activity was quantified photometrically and expressed as ratio of controls. The given IC50 values represent the mean of at least two independent experiments using at least eight different concentrations of test compound with n = 4. Non-linear regression analysis was performed using OriginPro 2020. […]

[3] = system: pyocyanin production in PA14 wt; assay: Pyocyanin assay in PA14 wt; type: cell-based; details: Pseudomonas aeruginosa, PA14, read-out: IC50 pyocyanin
Description: The pyocyanin inhibitory effect of the synthesized compounds and the compound (4) loaded SqNPs on PA14 wt were investigated by pyocyanin assay as described in previous work.[2,5] Briefly, PA14 wt was grown in PPGAS medium, overnight, at 37 °C, shaking at 200 rpm. The bacterial suspension was then centrifuged at 7.450 g, washed twice and diluted to a final OD600 (absorption at 600 nm) of 0.02 (2∙10^7 CFU/mL) in fresh PPGAS. 1.5 mL of the […]
(1 picture or pasted object on this page, not shown here) […]
culture was distributed in each well of the 24 well-plate. The free synthesized QSI prepared in DMSO, compound (4) loaded SqNPs were supplemented to bacteria-containing wells (1:100 dilutions). PA14 wt treated with either PBS or drug-free SqNPs (200 μg/mL) served as controls. Following 16 h incubation under aerobic conditions, pyocyanin in 900 μL of bacteria culture was extracted with chloroform and re-extracted with 0.2 M HCl. Pyocyanin production level was measured as the absorption at 520 nm, which was normalized to cell growth measured as OD600. 0.2 M HCl served as blank samples. Three independent experiments were conducted in triplicate. Non-linear regression analysis was performed using […]
(4) loaded SqNPs on PA14 wt. The pyocyanin inhibitory efficacy was improved by a factor of […]
It is noted that as reported in our prior
Figure S2. The production of pyocyanin levels compared to control PA14 wide type (wt) of the samples treated with 200 μg/mL drug free SqNPs. Three independent experiments were conducted in triplicate. […]
(also on this page, place not known: ( 4) -containing -free bacteria re -extracted compo und ( 4) (IC 50 nM ) (IC 50 nM ). drug P A14 5,6,7,8 -tetradeutero-2-heptyl-4(1H)-quinolone standa rd -40 -20 0 20 40 60 80 100 120 0.005 0.05 0.5 pyo production inhibition [%] Compound concentration loaded SqNPs [µM] IC50 = 100 ± 0.018 [nM])

[4] = Kinetic turbidimetric solubility assay; type: physicochemical; details: PBS, aqueous buffer, kinetic from dmso stock, read-out: Kinetic solubility S kin
Description: 5.4. Kinetic Turbidimetric Solubility Assay
The desired compounds were sequentially diluted in DMSO in a 96-well plate. A 3 µL of each well were transferred into another three 96-well plates, followed by addition of 147 µL of PBS. Plates were shaken for 5 min at 600 rpm at room temperature (r.t.), and the absorbance at 620 nm was measured. Absorbance values were normalized by blank […]
subtraction and plotted using GraphPad Prism 8.4.2 (GraphPad Software, San Diego, CA, […]

[5] = Metabolic stability half-life (matrix not given); type: in vitro ADME; details: matrix not stated; read-out: metabolic stability half-life t 1/2
Description: First, we evaluated the most promising compounds considering in vitro pharmacokinetic properties such as solubility and metabolic stability. […] Compounds 4 and 19 were moderately stable with half‐lives of 10 and 19 min, respectively.

T1 sequence (Q9I4X0 whole entry): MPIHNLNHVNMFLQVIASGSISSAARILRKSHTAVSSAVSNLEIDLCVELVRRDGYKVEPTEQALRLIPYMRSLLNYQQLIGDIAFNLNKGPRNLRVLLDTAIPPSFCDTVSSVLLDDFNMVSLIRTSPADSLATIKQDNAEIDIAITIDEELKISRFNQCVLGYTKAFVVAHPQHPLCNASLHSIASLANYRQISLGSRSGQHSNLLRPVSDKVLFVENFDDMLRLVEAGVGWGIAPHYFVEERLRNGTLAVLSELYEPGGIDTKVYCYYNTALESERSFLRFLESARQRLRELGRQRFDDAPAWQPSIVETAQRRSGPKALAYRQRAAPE

For `Nc1cccc(C(F)(F)F)n1` [Compound 1], which IC50 [1] is on record?
The IC50 was 33100 nM.

What does the source list for `Fc1ccc(-n2cc(CNc3ccnc(C(F)(F)F)c3)nn2)cc1` [Compound 3]?
IC50 [2]: 196 nM; IC50 [3]: > 5000 nM

For `Fc1cccc(-n2cc(CNc3ccnc(C(F)(F)F)c3)nn2)c1` [Compound 5], which “IC50 PqsR” value [2] is on record?
The value was “inactive”.

What about the IC50 [3] of the same molecule?
Its IC50 is greater than 5000 nM.

With `Fc1ccccc1-n1cc(CNc2ccnc(C(F)(F)F)c2)nn1` [Compound 6] as the molecule, how does the “IC50 PqsR” value [2] read?
Its value is “inactive”.

And the IC50 [3]?
The IC50 was greater than 10000 nM.

What does the source list for `FC(F)(F)c1cc(NCc2cn(-c3ccccc3Cl)nn2)ccn1` [Compound 7]?
IC50 PqsR [2]: inactive; IC50 [3]: > 5000 nM

For `FC(F)(F)c1cc(NCc2cn(-c3cccc(Cl)c3)nn2)ccn1` [Compound 8], which IC50 [2] is on record?
The IC50 was 123 nM.

And the IC50 [3]?
The IC50 was greater than 2500 nM.

Which IC50 [2] does the source give for `FC(F)(F)c1cc(NCc2cn(-c3ccc(Cl)cc3)nn2)ccn1` [Compound 9] here?
Its IC50 is 79 nM.

What about the IC50 [3] of the same molecule?
The IC50 was 7730 nM.

For `Oc1ccc(-n2cc(CNc3ccnc(C(F)(F)F)c3)nn2)cc1` [Compound 10], which “IC50 PqsR” value [2] is on record?
The value was “inactive ^a)”.

With `COc1ccc(-n2cc(CNc3ccnc(C(F)(F)F)c3)nn2)cc1` [Compound 11] as the molecule, how does the IC50 [2] read?
The IC50 was 81 nM.

What about the IC50 [3] of the same molecule?
The IC50 was 2500 nM.

Which IC50 [2] does the source give for `FC(F)(F)Oc1ccc(-n2cc(CNc3ccnc(C(F)(F)F)c3)nn2)cc1` [Compound 12] here?
Its IC50 is 30 nM.

What about the IC50 [3] of the same molecule?
Its IC50 is 1180 nM.

Which IC50 [2] does the source give for `FC(F)(F)c1ccc(-n2cc(CNc3ccnc(C(F)(F)F)c3)nn2)cc1` [Compound 13] here?
The IC50 was 129 nM.

What about the IC50 [3] of the same molecule?
The IC50 was greater than 5000 nM.

Which results are given for `N#Cc1ccc(-n2cc(CNc3ccnc(C(F)(F)F)c3)nn2)cc1` [Compound 14]?
IC50 [2]: 655 nM; IC50 [3]: > 10000 nM

Which IC50 [2] does the source give for `FC(F)(F)c1cc(NCc2cn(-c3ccc(Nc4ccccc4)cc3)nn2)ccn1` [Compound 15] here?
The IC50 was 31 nM.

What about the IC50 [3] of the same molecule?
Its IC50 is 1060 nM.

For `FC(F)(F)c1cc(NCc2cn(-c3ccc(Cl)c(Cl)c3)nn2)ccn1` [Compound 16], which IC50 [2] is on record?
Its IC50 is 24 nM.

And the IC50 [3]?
Its IC50 is 354 nM.

Which results are given for `FC(F)(F)Oc1ccc(-n2cc(CNc3ccnc(C(F)(F)F)c3)nn2)cc1Cl` [Compound 18]?
IC50 [2]: 15 nM; IC50 [3]: 438 nM; solubility kinetic at 5 min [4]: 31.3 µM (≈ 13.7 µg/mL); half-life [5]: 55 min

With `FC(F)(F)c1cc(NCc2cn(-c3ccc(Oc4ccccc4)c(Cl)c3)nn2)ccn1` [Compound 19] as the molecule, how does the IC50 [2] read?
The IC50 was 12 nM.

And the IC50 [3]?
The IC50 was 181 nM.

What about the half-life [5] of the same molecule?
The half-life was 19 min.

For `Nc1cc(NCc2cn(-c3ccc(Oc4ccccc4)cc3)nn2)cc(C(F)(F)F)n1` [Compound 20], which IC50 [3] is on record?
The IC50 was 351 nM.

What about the solubility kinetic at 5 min [4] of the same molecule?
Its solubility kinetic at 5 min is 13 µM (≈ 5.54 µg/mL).

— PMC8224453, “A New PqsR Inverse Agonist Potentiates Tobramycin Efficacy to Eradicate Pseudomonas aeruginosa Biofilms” (Advanced Science, 2021)
